Measurements published in ChEMBL document CHEMBL1201862, “PubChem BioAssay data set” (2004).
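Protocol summary: plate cells (96-well), add compound at 5 concentrations, incubate 48 h, interpolate endpoints linearly. GI50 is the concentration that inhibits growth by half.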 The source made the active and inactive calls. Rule as the data show it: active = GI50 up to about 1.1 µM and inactive = higher.

Experiments:
Experiment in all cases: growth of human tumour cells (NCI), 48 h
NCI-H23 = tested on: NCI-H23
HCC 2998 = tested on: HCC 2998
HCT-116 = tested on: HCT-116
A549 = tested on: A549
HL-60 = tested on: HL-60
SF-539 = tested on: SF-539
SF-268 = tested on: SF-268
T47D = tested on: T47D
UACC-257 = tested on: UACC-257
SN12C = tested on: SN12C
A498 = tested on: A498
SF-295 = tested on: SF-295
HT-29 = tested on: HT-29
MDA-MB-435 = tested on: MDA-MB-435
SK-MEL-28 = tested on: SK-MEL-28
HOP-92 = tested on: HOP-92
UO-31 = tested on: UO-31
OVCAR-4 = tested on: OVCAR-4
786-0 = tested on: 786-0
KM12 = tested on: KM12
COLO 205 = tested on: COLO 205
HCT-15 = tested on: HCT-15
ACHN = tested on: ACHN
OVCAR-5 = tested on: OVCAR-5
SK-MEL-2 = tested on: SK-MEL-2
TK-10 = tested on: TK-10
M14 = tested on: M14
OVCAR-8 = tested on: OVCAR-8
NCI-H460 = tested on: NCI-H460
CCRF-CEM = tested on: CCRF-CEM
BT-549 = tested on: BT-549
MOLT-4 = tested on: MOLT-4
PC-3 = tested on: PC-3
RXF 393 = tested on: RXF 393
SNB-75 = tested on: SNB-75
RPMI-8226 = tested on: RPMI-8226
LOX IMVI = tested on: LOX IMVI
HOP-62 = tested on: HOP-62
NCI-H522 = tested on: NCI-H522
Hs-578T = tested on: Hs-578T
K562 = tested on: K562
MCF7 = tested on: MCF7
U-251 = tested on: U-251
EKVX = tested on: EKVX
SK-MEL-5 = tested on: SK-MEL-5
OVCAR-3 = tested on: OVCAR-3
Malme-3M = tested on: Malme-3M
NCI/ADR-RES = tested on: NCI/ADR-RES
CAKI-1 = tested on: CAKI-1
SK-OV-3 = tested on: SK-OV-3
SW-620 = tested on: SW-620
SNB-19 = tested on: SNB-19
DU-145 = tested on: DU-145
UACC-62 = tested on: UACC-62

Structure (SMILES): COc1cc(Nc2c(C#N)[n+]([O-])c3ccccc3[n+]2[O-])cc(OC)c1OC
- GI50 (NCI-H23): 19.6 µM (inactive)
- GI50 (HCC 2998): 18.4 µM (inactive)
- GI50 (HCT-116): 16.4 µM (inactive)
- GI50 (A549): 43.8 µM (inactive)
- GI50 (HL-60): 41.2 µM (inactive)
- GI50 (SF-539): 33.6 µM (inactive)
- GI50 (SF-268): 27.2 µM (inactive)
- GI50 (T47D): 14.8 µM (inactive)
- GI50 (UACC-257): 27.4 µM (inactive)
- GI50 (SN12C): 35.8 µM (inactive)
- GI50 (A498): 48.3 µM (inactive)
- GI50 (SF-295): 46.3 µM (inactive)
- GI50 (HT-29): 29.9 µM (inactive)
- GI50 (MDA-MB-435): 37.4 µM (inactive)
- GI50 (SK-MEL-28): 19 µM (inactive)
- GI50 (HOP-92): 28.1 µM (inactive)
- GI50 (UO-31): > 100 µM (inactive)
- GI50 (OVCAR-4): > 100 µM (inactive)
- GI50 (786-0): 20 µM (inactive)
- GI50 (KM12): 37.7 µM (inactive)
- GI50 (COLO 205): 12.6 µM (inactive)
- GI50 (HCT-15): 15.6 µM
- GI50 (ACHN): 56.8 µM (inactive)
- GI50 (OVCAR-5): 22.3 µM (inactive)
- GI50 (SK-MEL-2): 39.1 µM (inactive)
- GI50 (TK-10): > 100 µM (inactive)
- GI50 (M14): 15 µM (inactive)
- GI50 (OVCAR-8): 31.9 µM (inactive)
- GI50 (NCI-H460): 35.2 µM (inactive)
- GI50 (CCRF-CEM): 27 µM (inactive)
- GI50 (BT-549): 97.5 µM (inactive)
- GI50 (MOLT-4): 42 µM (inactive)
- GI50 (PC-3): 33.3 µM (inactive)
- GI50 (RXF 393): 33.8 µM (inactive)
- GI50 (SNB-75): > 100 µM (inactive)
- GI50 (RPMI-8226): > 100 µM (inactive)
- GI50 (LOX IMVI): 26.7 µM (inactive)
- GI50 (HOP-62): 29 µM (inactive)
- GI50 (NCI-H522): 29.1 µM (inactive)
- GI50 (Hs-578T): > 100 µM (inactive)
- GI50 (K562): 39.1 µM (inactive)
- GI50 (MCF7): 24.2 µM (inactive)
- GI50 (U-251): 38 µM (inactive)
- GI50 (EKVX): 29 µM (inactive)
- GI50 (SK-MEL-5): 19.6 µM (inactive)
- GI50 (OVCAR-3): 25.6 µM (inactive)
- GI50 (Malme-3M): 35.2 µM (inactive)
- GI50 (NCI/ADR-RES): 17.3 µM (inactive)
- GI50 (CAKI-1): 38.1 µM (inactive)
- GI50 (SK-OV-3): 15.7 µM (inactive)
- GI50 (SW-620): 29.9 µM (inactive)
- GI50 (SNB-19): 28.6 µM (inactive)
- GI50 (DU-145): 43.3 µM (inactive)

Structure (SMILES): CC1CC[P+](c2ccccc2)(c2ccccc2)c2c1ccc1ccccc21 (configuration not stated)
- GI50 (NCI-H23): 2.4 µM (inactive)
- GI50 (HCC 2998): 6.12 µM (inactive)
- GI50 (HCT-116): 2.67 µM (inactive)
- GI50 (A549): 9.1 µM (inactive)
- GI50 (HL-60): 2.51 µM (inactive)
- GI50 (SF-539): 4.82 µM (inactive)
- GI50 (SF-268): 7.89 µM (inactive)
- GI50 (T47D): 0.698 µM (active)
- GI50 (UACC-257): 0.607 µM (active)
- GI50 (SN12C): 3.94 µM (inactive)
- GI50 (SF-295): 3.33 µM (inactive)
- GI50 (HT-29): 2.32 µM (inactive)
- GI50 (MDA-MB-435): 2.78 µM (inactive)
- GI50 (HOP-92): 1.15 µM (inactive)
- GI50 (UO-31): 27 µM (inactive)
- GI50 (OVCAR-4): 12.6 µM (inactive)
- GI50 (KM12): 3.13 µM (inactive)
- GI50 (HCT-15): 40.5 µM
- GI50 (ACHN): 14 µM (inactive)
- GI50 (OVCAR-5): 5.81 µM (inactive)
- GI50 (SK-MEL-2): 1.79 µM (inactive)
- GI50 (UACC-62): 4.13 µM (inactive)
- GI50 (M14): 5.89 µM (inactive)
- GI50 (OVCAR-8): 2.44 µM (inactive)
- GI50 (NCI-H460): 2.64 µM (inactive)
- GI50 (CCRF-CEM): 4.3 µM (inactive)
- GI50 (BT-549): 1.23 µM (inactive)
- GI50 (MOLT-4): 6.75 µM (inactive)
- GI50 (PC-3): 1.51 µM (inactive)
- GI50 (RXF 393): 9.77 µM (inactive)
- GI50 (SNB-75): 1.79 µM (inactive)
- GI50 (LOX IMVI): 2.25 µM (inactive)
- GI50 (NCI-H522): 1.16 µM (inactive)
- GI50 (Hs-578T): 1.79 µM (inactive)
- GI50 (K562): 0.942 µM (active)
- GI50 (MCF7): 2.14 µM (inactive)
- GI50 (SK-MEL-5): 1.34 µM (inactive)
- GI50 (CAKI-1): 7.85 µM (inactive)
- GI50 (SNB-19): 4.07 µM (inactive)
